Test results reported in patent publication EP0427799B1, “METHOD AND COMPOUNDS FOR AICA RIBOSIDE DELIVERY AND FOR LOWERING BLOOD GLUCOSE” (GENSIA, INC., priority 1989, dated 1990).

How the values were obtained:
hippocampal CA-1 cells = test: Gerbil model of 5 minutes global brain ischemia followed by reperfusion; format: in vivo; settings: ICV and IP administration
Excerpt: The claimed prodrugs, by delivering AICA riboside should provide similar efficacy. […] Both intracerebroventricular (ICV) and IP administration of AICA riboside was effective in the gerbil model In addition to the gerbil, two different rat models of focal ischemia were also used to evaluate AICA-riboside. One model employed partial reperfusion and the second total reperfusion.

liver glycogen = test: Effect on liver glycogen in mice; format: in vivo; settings: 750 mg/Kg
Method: (See Figures 9 and 10A to 10D). The glucose lowering effects of AICA riboside are related temporally to the generation and maintenance of liver ZMP levels in rats. (See Figures 11A and 11B).
Swiss Webster mice were treated with saline (as a control) or 750 mg/kg of AICA riboside administered intraperitoneally, six animals per group. The mice were sacrificed one hour post-administration The livers were removed and extracted. Liver glycogen was determined by the method of Dubois, et al., Anal. Chem. 28:350-356 (1956). Glucose was measured by the hexokinase method (See Example K).

in vivo = test: in vivo; design: species or system dogs; settings: dog
Method: The bioavailability of AICA riboside after oral administration of either AICA riboside or one of the AICA riboside prodrugs of the present invention was evaluated in dogs. Plasma concentrations of AICA riboside and intact prodrug were measured using HPLC. (See Dixon, R., et al., Res. Commun. Chem. Path. Pharm. 65:405-408 (1989)). Bioavailability of AICA riboside was evaluated in terms of the time required to reach maximum plasma concentration (Tmax), the maximum concentration achieved (Cmax) and the area under the plasma concentration-time curve (AUC) from time zero to the last measurable plasma concentration. Absolute bioavailability (F%) was calculated by dividing the AUC for AICA riboside following oral administration of the prodrug (or AICA riboside itself) by the AUC following intravenous administration of an equivalent amount of AICA riboside (100% bioavailability).

ischemic heart tissue = test: Adenosine, AICA riboside and ZMP levels in ischemic heart tissue; format: in vivo, rats; settings: ischemic rat heart tissue
Method: Prodrug compounds of the present invention and AICA riboside were tested for their activity in enhancing the production of adenosine and increasing production of AICA riboside from ZMP in ischemic heart tissue in rats.
Samples of heart tissue after ischemia were analyzed for nucleoside and nucleotide levels. Samples were measured for adenosine, AICA riboside and ZMP concentrations by HPLC.

plasma glucose [1] = test: Plasma glucose levels in non-fasted and fasted mice; format: in vivo, mice (Swiss-Webster); settings: for reduced glucose levels: fasted mice (16 hours)
Method: Ribose is known to lower blood glucose in several animal species, including man, in relatively high doses (on the order of about 1000 mg/kg) by an unknown mechanism, possibly by inhibition of phosphoglucomutase. […] Initial studies were performed using non-fasted rats (Sprague Dawley) and mice (Swiss-Webster).
Male mice (Swiss-Webster) were injected IP with the indicated treatment. […] Ribose and AICA riboside were formulated in saline. Glucose levels were measured on plasma (heparinized blood centrifuged at 10,000 X g for ten minutes). Glucose levels were measured one hour after AICA riboside administration.

adenosine kinase = adenosine kinase (Homo sapiens, UniProt P55263); test: Inhibition of adenosine kinase; format: biochemical
Sequence of adenosine kinase (P55263 whole entry, species assumed): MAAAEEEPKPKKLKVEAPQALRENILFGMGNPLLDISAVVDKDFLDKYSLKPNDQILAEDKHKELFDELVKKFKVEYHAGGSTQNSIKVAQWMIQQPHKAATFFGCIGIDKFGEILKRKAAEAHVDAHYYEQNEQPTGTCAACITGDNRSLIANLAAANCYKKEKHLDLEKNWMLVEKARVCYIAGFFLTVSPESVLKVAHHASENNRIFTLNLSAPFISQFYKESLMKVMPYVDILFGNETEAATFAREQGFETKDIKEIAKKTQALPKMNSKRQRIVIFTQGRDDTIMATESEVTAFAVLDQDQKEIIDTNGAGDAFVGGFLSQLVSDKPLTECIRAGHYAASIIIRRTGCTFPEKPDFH

insulin = test: Plasma insulin levels in humans; format: in vivo; settings: human subjects; precedes the drop in blood glucose
Method: Human (male) volunteers were given a 15-minute intravenous infusion of 50 mg/kg AICA riboside. Plasma concentrations of immunoreactive insulin was determined by RIA during and following the administration for about 4 hours. (RIA kit, Amersham Clinical).

plasma glucose [2] = test: Plasma glucose levels in non-fasted rats; format: in vivo, rats (Sprague Dawley); settings: 750 mg/Kg, 1 hour after administration
Method: This hypoglycemic effect may contribute to the anti-ischemic properties of the molecule. Ribose is known to lower blood glucose in several animal species, including man, in relatively high doses (on the order of about 1000 mg/kg) by an unknown mechanism, possibly by inhibition of phosphoglucomutase. Accordingly, in theory, AICA riboside could cause hypoglycemia at extremely high doses ([…]) due to its ability to deliver ribose phosphate to cells. Other means of increasing intracellular ribose such as treatment with ribose itself or other nucleosides and prodrugs and analogs of them which can be metabolized to yield ribose-1-phosphate (which is converted ribose-5-phosphate) or ribose-5-phosphate may also lower blood sugar. […] At higher doses of AICA riboside, hypoglycemic seizures and death were induced in rabbits and mice. We have found rats to also be sensitive to the hypoglycemic effects of AICA riboside. Initial studies were performed using non-fasted rats (Sprague Dawley) and mice (Swiss-Webster). […] In non-fasted mice the decrease of glucose levels at this dose was greater, On the order of 30-50%. In both cases the hypoglycemia was statistically significant at the p <.01 level. […] In fasted mice, AICA riboside is potent in lowering blood glucose. (See e.g., Figure 6). In fasted mice AICA riboside may cause seizures at doses of 500 mg/Kg and above. […]

## NC(=O)c1ncn([C@@H]2O[C@H](CO)[C@@H](O)[C@H]2O)c1N [AICA riboside, 1-β-D-ribofuranosyl-5-aminoimidazole-4-carboxamide]
Hippocampal CA-1 cells
  degeneration of hippocampal CA-1 cells: prevented the degeneration of hippocampal CA-1 cells
Liver glycogen
  increase of liver glycogen: 55%
In vivo; iv
  AUC(0-t): 8300 ng·h/mL
  F: 100%
In vivo; po
  AUC(0-t): 900 ng·h/mL
  Cmax: 1100 ng/mL
  Tmax: 45 min
  bioavailability: 11%
Ischemic heart tissue; Prodrug A at dose equimolar to AICA riboside
  Tissue Concentration Adenosine: 409 ± 60 nmol/g
Ischemic heart tissue; equimolar doses
  Tissue Concentration AICA Riboside: 774 ± 73 nmol/g
Plasma glucose [1]; fasted mice
  doses that may cause seizures: ≥ 500 mg/kg
Plasma glucose [1]; fasted mice (2 hours), 500 mg/Kg
  duration of reduced plasma glucose levels: 2 to 3 h
Plasma glucose [1]; 250 mg/Kg
  reduced glucose levels: 50%
Plasma glucose [1]; 500 and 750 mg/Kg
  reduced glucose levels: 60%
Plasma glucose [1]; non-fasted mice, 750 mg/Kg
  decrease of glucose levels: 30-50%
Adenosine kinase
  inhibition of adenosine kinase: weak inhibitor
insulin
  serum insulin levels: significant elevations of serum insulin levels
Plasma glucose [2]
  Decreases in plasma glucose levels: 30-40%
